Results as given in PMC5543150, “Antimalarial troponoids, puberulic acid and viticolins; divergent synthesis and structure-activity relationship studies” (Scientific Reports, 2017).
≈ marks a conversion by molar mass, not a printed value. Where two headings read alike, the source gives them in different places.

Key:
[1] = test system: Plasmodium falciparum K1 (chloroquine-resistant) parasite strain; assay: In vitro antimalarial assay (p-LDH, 72 h) against Plasmodium falciparum K1 strain; assay type: cell-based; conditions: for IC50: Plasmodium falciparum; for fold better IC50 than those of 7 and 37: relative to 7 and 37
Description: Briefly, the P. falciparum K1 strain was cultured in human erythrocytes in RPMI medium supplemented with 10% human plasma at 37 °C, under 93% N2, 4% CO2, and 3% O2. Asynchronous parasites (2% hematocrit and 0.5 or 1% parasitaemia) were seeded in a 96-well microtiter plate and serially diluted test compounds were added. […] After 72-hours incubation, parasite lactate dehydrogenase (p-LDH) was assayed using a slight modification of the procedure reported by Makler et al.[31] and Vivas et al.[32]. The 50% inhibitory concentration (IC50) value was calculated from a dose response curve. This study was approved by “Kitasato Institute Hospital Research Ethics Committee (No12102)” using human erythrocytes donated by volunteers.
3. Biological evaluation of synthesized derivatives
3-1. In vitro cultivation of Plasmodium falciparum and the antimalarial assay In vitro cultivation and antimalarial activity against the Plasmodium falciparum […]
previously1). Briefly, the P. falciparum K1 strain was cultured in human erythrocytes in RPMI medium supplemented with 10% human plasma at 37 °C, under 93% N2, 4% CO2, and 3% O2. Asynchronous parasites (2% hematocrit and 0.5 or 1% parasitaemia) were seeded in a 96-well microtiter plate and serially diluted test compounds were added.
After 72-hours incubation, parasite lactate dehydrogenase (p-LDH) was assayed using a slight modification of the procedure reported by Makler et al2) and Vivas et al3). The 50% inhibitory concentration (IC50) value was calculated from a dose response curve.
This study was approved by “Kitasato Institute Hospital Research Ethics Committee (No12102)” using human erythrocytes donated by volunteers.
(§1) 3-2. Cytotoxic assay against MRC-5 cells
Measurement of cytotoxicity against human fetal lung fibroblast MRC-5 cells was carried out as described previously4).
1) K. Otoguro, A. Kohana, C. Manabe, A. Ishiyama, H. Ui, K. Shiomi, H. Yamada, S. […]
2) M. T. Makler, J. M. Ries, J. A. Williams, J. E. Bancroft, R. C. Piper, B. L. Gibbins, […]
D. J. Hinrichs, Am. J. Med. Hyg. 1993, 48, 739-741.
3) L. Vivas, A. Easton, H. Kendrick, A. Cameron, J.-L. Lavandera, D. Barros, F. G. de las Heras, R. L. Brady, S. L. Croft, Exper. Parasitol. 2005, 111, 105-114.
4) K. Otoguro, H. Ui, A. Ishiyama, N. Arai, M. Kobayashi, Y. Takahashi, R. Masuma, K. Shiomi, H. Yamada, S. Ōmura, J. Antibiot. 2003, 56, 322-324.

[2] = Cytotoxic assay against MRC-5 cells; conditions: human
Description: Measurement of cytotoxicity against human fetal lung fibroblast MRC-5 cells was carried out as described previously.
3. […]
as §1
Measurement of cytotoxicity against human fetal lung fibroblast MRC-5 cells
was carried out as described previously4). […]
4) K. Otoguro, H. Ui, A. Ishiyama, N. Arai, M. Kobayashi, Y. Takahashi, R. Masuma,
K. Shiomi, H. Yamada, S. Ōmura, J. Antibiot.

[3] = test system: Plasmodium falciparum K1 (chloroquine-resistant) parasite strain; conditions: natural products and simple troponoids, previously reported, cited from earlier work; for IC50 Antimalarial activity (K1 strain) / Selectivity index MRC-5/K1: Table S1; for IC50: read-out: IC50, antimalarial activity against Plasmodium falciparum K1 strain
[4] = test system: human fetal lung fibroblast MRC-5 cells; design: method as in earlier work; conditions: Table S1; natural products and simple troponoids, previously reported; cited from earlier work
[5] = test system: P. berghei; design: method as in PMID 21063422, PMID 24713875; conditions: 2 mg/kg × 4, subcutaneous (s.c.), 4-day suppressive test; cited from earlier work
[6] = design: method as in PMID 21063422, PMID 24713875; conditions: s.c. dose of 5 mg/kg × 2 (day 0 and 1), by day 3; cited from earlier work
[7] = K1, Table S1, synthesized compounds and positive controls, read-out: IC50 Antimalarial activity (K1 strain)
[8] = K1, synthesized derivatives, in vitro, read-out: IC50 Antimalarial activity (K1 strain)
[9] = Table S1, synthesized compounds and positive controls
[10] = MRC-5 cells (fetal lung fibroblasts), IC50 Cytotoxicity (MRC-5), Table S1, synthesized compounds and positive controls
[11] = MRC-5 cells (fetal lung fibroblasts), IC50 Cytotoxicity (MRC-5), synthesized derivatives
[12] = MRC-5 cells (fetal lung fibroblasts), IC50 cytotoxicity (MRC-5)

| Structure (SMILES) | IC50 [1, 7] | IC50 [1, 8] | Selectivity index MRC-5/K1 [1, 9] | IC50 [2, 10] | IC50 [2, 11] | IC50 Antimalarial activity (K1 strain) [3] | IC50 [3] | also measured |
| --- | --- | --- | --- | --- | --- | --- | --- | --- |
| O=C(O)c1cc(O)c(O)c(=O)c(O)c1 [Compound 1, puberulic acid] | 0.0087 µg/mL | 44 ± 2.9 nM | 480.46 | 4.18 µg/mL | 289000 nM | 0.01 µg/mL (≈ 0.0505 µM) | 50 nM | Selectivity index MRC-5/K1 [3]: 5720; IC50 Cytotoxicity (MRC-5) [4]: 57.20 µg/mL (≈ 289 µM); in vivo efficacy, inhibition [5]: 69%; toxicity in vivo, mice dying [6]: four out of five |
| O=C(O)c1cc(O)cc(=O)c(O)c1 [Compound 2, stipitatic acid] |  |  |  |  |  | 7.07 µg/mL (≈ 38.8 µM) |  | Selectivity index MRC-5/K1 [3]: > 14; IC50 Cytotoxicity (MRC-5) [4]: > 100 µg/mL |
| COc1c(O)cc(C(=O)O)cc(O)c1=O [Compound 3, viticolin A] |  |  |  |  |  | 9.92 µg/mL (≈ 46.8 µM) | 46800 nM | melting point: 227 °C; Selectivity index MRC-5/K1 [3]: > 10; IC50 Cytotoxicity (MRC-5) [4]: > 100 µg/mL |
| COc1cc(C(=O)O)cc(O)c(OC)c1=O [Compound 4, viticolin B] |  |  |  |  |  | 0.84 µg/mL (≈ 3.71 µM) | 3710 nM | Selectivity index MRC-5/K1 [3]: 8.08; IC50 Cytotoxicity (MRC-5) [4]: 6.79 µg/mL (≈ 30 µM) |
| O=c1cccccc1 [Compound 5, tropone, reference compound] |  |  |  |  |  | > 12.50 µg/mL | > 118000 nM |  |
| O=c1cccccc1O [Compound 6, tropolone, reference compound] |  |  |  |  |  | 2.74 µg/mL (≈ 22.4 µM) | 22400 nM |  |
| O=c1c(O)ccccc1O [Compound 7, 7-hydroxytropolone, reference compound] |  |  |  |  |  | 0.89 µg/mL (≈ 6.44 µM) | 6440 nM | fold stronger IC50 value than that of 5 ([1]; K1 strain, relative to tropone (5)): > 18 fold; Selectivity index MRC-5/K1 [3]: 0.27; IC50 Cytotoxicity (MRC-5) [4]: 0.24 µg/mL (≈ 1.74 µM) |
| CC(C)c1cccc(=O)c(O)c1 [Compound 8, hinokitiol, reference compound] |  |  |  |  |  | 4.92 µg/mL (≈ 30 µM) | 30000 nM | Selectivity index MRC-5/K1 [3]: 1.20; IC50 Cytotoxicity (MRC-5) [4]: 5.80 µg/mL (≈ 35.3 µM) |
| CC1(C)Oc2cc(C=O)cc(O)c(=O)c2O1 [Compound 23] | > 12.5 µg/mL | > 56000 nM |  |  |  |  |  |  |
| CC1(C)Oc2cc(C(=O)O)cc(O)c(=O)c2O1 [Compound 24] | > 12.5 µg/mL | > 50000 nM |  |  |  |  |  |  |
| COC(=O)c1cc2c(c(OC)c(=O)c1)OC(C)(C)O2 [Compound 25] | > 12.5 µg/mL | > 47000 nM |  |  |  |  |  |  |
| COC(=O)c1cc2c(c(=O)c(OC)c1)OC(C)(C)O2 [Compound 26] | > 12.5 µg/mL | > 47000 nM |  |  |  |  |  |  |
| COc1c2c(cc(C(=O)O)cc1=O)OC(C)(C)O2 [Compound 27] | > 12.5 µg/mL | > 50000 nM |  |  |  |  |  |  |
| COc1cc(C(=O)O)cc2c(c1=O)OC(C)(C)O2 [Compound 28] | > 12.5 µg/mL | > 50000 nM |  |  |  |  |  |  |
| COc1cc(C(=O)O)cc(O)c(=O)c1O [Compound 29, Iso-viticolin A] | 0.073 µg/mL | 340 ± 22 nM | 162.33 | 11.8 µg/mL | 55800 nM |  |  | fold stronger activity than viticolin A (3) ([1]; K1 strain, relative to viticolin A (3)): approximately 100 fold |
| O=c1c(O)ccc(CO)cc1O [Compound 37, 4-Hydroxymethyl-7-hydroxytropolone] | 0.728 µg/mL | 4330 ± 30 nM | 0.0008 | 0.00057 µg/mL | 3.4 nM |  |  | IC50 [2, 12]: 3.39 nM; melting point: 144 °C (dec.) |
| COCc1ccc(O)c(=O)c(O)c1 [Compound 38, 4-Methoxymethyl-7-hydroxytropolone] | 0.38 µg/mL | 2090 ± 27 nM | 0.0006 | 0.00024 µg/mL | 1.3 nM |  |  | fold better IC50 than those of 7 and 37 ([1]; K1 strain): approximately 2 fold; IC50 [2, 12]: 1.32 nM |
| O=C(O)c1ccc(O)c(=O)c(O)c1 [Compound 40, Iso-stipitatic acid] | 0.387 µg/mL | 2120 ± 110 nM | 47.82 | 18.6 µg/mL | 102000 nM |  |  | fold better IC50 than those of 7 and 37 ([1]; K1 strain): approximately 2 fold |
| O=c1c(O)cc(CO)cc(O)c1O [Compound 42, 4-Hydroxymethyl-6,7-dihydroxytropolone] | 0.038 µg/mL | 210 ± 3.3 nM | 0.115 | 0.00435 µg/mL | 24 nM |  |  | melting point: 162 °C |
| COCc1cc(O)c(O)c(=O)c(O)c1 [Compound 43, 4-Methoxymethyl-6,7-dihydroxytropolone] | 0.044 µg/mL | 220 ± 1.6 nM | 0.041 | 0.00181 µg/mL | 91 nM |  |  | melting point: 120 °C |
| [N-]=[N+]=NCc1cc(O)c(O)c(=O)c(O)c1 [Compound 44, 4-Azidomethyl-6,7-dihydroxytropolone] | 0.096 µg/mL | 460 ± 53 nM |  | 0.00073 µg/mL | 3.5 nM |  |  |  |
| C[C@@H]1CC[C@H]2[C@@H](C)C(=O)O[C@@H]3O[C@@]4(C)CC[C@@H]1[C@]32OO4 [artemisinin, reference compound] | 0.0057 µg/mL |  | 7.925 |  |  |  |  | IC50 ([2]; IC50 Cytotoxicity (MRC-5)): 45.2 µg/mL |
| CCN(CC)CCCC(C)Nc1ccnc2cc(Cl)ccc12 (centres unmarked) [chloroquine, reference compound] |  |  |  |  |  |  |  | IC50 ([1]; K1, read-out: IC50 Antimalarial activity (K1 strain)): 0.18 µg/mL; IC50 [2]: 18.6 µg/mL |
